Assay results: patent publication US10752640B2, “Compounds active towards bromodomains” (NUEVOLUTION A/S, priority 2014, dated 2020)

Biological target: BRD4 protein (Homo sapiens, UniProt O60885)
Assay: FRET assay, half maximal inhibitory concentration (IC50)
Type: binding
Conditions: BRD4 protein 50 nM, Biotin-H4KAc4 peptide 12.5 nM; A Further List of Classification
Method in brief: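 HTRF: 50 nM BRD4 preincubated 30 min at room temperature with compound (10-fold series from 50 μM in 12.5% DMSO) in 50 mM HEPES pH 7.5, 100 mM NaCl, 0.05% CHAPS. Then 12.5 nM biotin-H4KAc4 peptide for 30 min, and anti-GST XL665 (10 nM) plus streptavidin cryptate (2.4 nM) with 0.4 M KF for 1 h. IC50 by variable-slope fit.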

| IC50 | Structure (SMILES) |
| --- | --- |
| 1000 to 10000 nM | Cc1cc(O)nc2ccc(NC(=O)c3cc(S(=O)(=O)N(C)C)ccc3N3CCCC3C(C)(C)O)cc12 (stereo not shown) [S57, 5-(dimethylsulfamoyl)-2-[2-(1-hydroxy-1-methyl-ethyl)pyrrolidin-1-yl]-N-(2-hydroxy-4-methyl-6-quinolyl)benzamide] |
| > 10000 nM | Cc1cc(O)nc2ccc(NC(=O)c3cc(S(=O)(=O)N(C)C)ccc3F)cc12 [S33, 5-(dimethylsulfamoyl)-2-fluoro-N-(2-hydroxy-4-methyl-6-quinolyl)benzamide] |
| < 200 nM | Cc1cc(O)nc2ccc(NC(=O)c3cc(CN4CCCN(C)CC4)ccc3N3CCCC3)cc12 [S87, N-(2-hydroxy-4-methyl-6-quinolyl)-5-[(4-methyl-1,4-diazepan-1-yl)methyl]-2-pyrrolidin-1-yl-benzamide] |
| > 10000 nM | Cc1cc(O)nc2ccc(NC(=O)c3cc(CN4CCOCC4)cnc3N3CC(CO)OCC3C)cc12 (stereo not shown) [S115, 2-[2-(hydroxymethyl)-5-methyl-morpholin-4-yl]-N-(2-hydroxy-4-methyl-6-quinolyl)-5-(morpholinomethyl)pyridine-3-carboxamide] |
| < 200 nM | Cc1cc(O)nc2ccc(NC(=O)c3cc(S(=O)(=O)N(C)C)ccc3N3CCCC3)cc12 [S27, 5-(dimethylsulfamoyl)-N-(2-hydroxy-4-methyl-6-quinolyl)-2-pyrrolidin-1-yl-benzamide] |
| < 200 nM | Cc1cc(O)nc2ccc(NC(=O)c3cc(S(=O)(=O)N4CCCCC4)ccc3N3CCOCC3)cc12 [S19, N-(2-hydroxy-4-methyl-6-quinolyl)-2-morpholino-5-(1-piperidylsulfonyl)benzamide] |
| 500 to 1000 nM | Cc1cc(O)nc2ccc(NC(=O)c3cc(S(=O)(=O)N(C)C)ccc3N3CCC(OCC(N)=O)C3)cc12 (stereo not shown) [S50, 2-[3-(2-amino-2-oxo-ethoxy)pyrrolidin-1-yl]-5-(dimethylsulfamoyl)-N-(2-hydroxy-4-methyl-6-quinolyl)benzamide] |
| 500 to 1000 nM | COC1CCN(c2ccc(S(=O)(=O)N(C)C)cc2C(=O)Nc2ccc3nc(O)cc(C)c3c2)C1 (stereo not shown) [S43, 5-(dimethylsulfamoyl)-N-(2-hydroxy-4-methyl-6-quinolyl)-2-(3-methoxypyrrolidin-1-yl)benzamide] |
| 500 to 1000 nM | Cc1cc(O)nc2ccc(NC(=O)c3cc([N+](=O)[O-])cnc3N3CCCCC3C)cc12 (stereo not shown) [S74, N-(2-hydroxy-4-methyl-6-quinolyl)-2-(2-methyl-1-piperidyl)-5-nitro-pyridine-3-carboxamide] |
| 1000 to 10000 nM | CN1C(=O)COc2cc(NC(=O)c3cc(S(=O)(=O)N4CCOCC4)ccc3N3CCCC3)ccc21 [S79, N-(4-methyl-3-oxo-1,4-benzoxazin-7-yl)-5-morpholinosulfonyl-2-pyrrolidin-1-yl-benzamide] |
| 1000 to 10000 nM | Cc1cc(O)nc2ccc(NC(=O)c3cc(CN4CCOCC4)cnc3N3CCC(CC(C)C)C3)cc12 (stereo not shown) [S101, N-(2-hydroxy-4-methyl-6-quinolyl)-2-(3-isobutylpyrrolidin-1-yl)-5-(morpholinomethyl)pyridine-3-carboxamide] |

Same assay, conditions: BRD4 protein 50 nM, Biotin-H4KAc4 peptide 12.5 nM; List of Classification

| IC50 | Structure (SMILES) |
| --- | --- |
| 200 to 500 nM | Cc1cc(O)nc2ccc(NC(=O)c3cnccc3N3CCCC3)cc12 [Compound-124, N-(2-hydroxy-4-methyl-6-quinolyl)-4-pyrrolidin-1-yl-pyridine-3-carboxamide] |
| 200 to 500 nM | Cc1cc(O)nc2ccc(NC(=O)c3cc(C(N)=O)ccc3N3CCOCC3)cc12 [Compound-12, N3-(2-hydroxy-4-methyl-6-quinolyl)-4-morpholino-benzene-1,3-dicarboxamide] |
| 200 to 500 nM | Cc1cc(O)nc2ccc(NC(=O)c3nc(C(N)=O)ccc3N3CCCC3)cc12 [Compound-40, N2-(2-hydroxy-4-methylquinolin-6-yl)-3-(pyrrolidin-1-yl)pyridine-2,6-dicarboxamide] |
| < 200 nM | Cc1cc2nc(O)cc(C)c2cc1NC(=O)c1cc(CN2CCOCC2)ccc1N1CCCC1 [Compound-29, N-(2-hydroxy-4,7-dimethylquinolin-6-yl)-5-(morpholinomethyl)-2-(pyrrolidin-1-yl)benzamide] |
| 500 to 1000 nM | Cc1cc(O)nc2ccc(NC(=O)c3cc(N)ccc3N3CCOCC3)cc12 [Compound-54, 5-amino-N-(2-hydroxy-4-methyl-6-quinolyl)-2-morpholino-benzamide] |
| < 200 nM | Cc1cc(O)nc2ccc(NC(=O)c3cccnc3N3CCOCC3C)cc12 (stereo not shown) [Compound-120, N-(2-hydroxy-4-methyl-6-quinolyl)-2-(3-methylmorpholin-4-yl)pyridine-3-carboxamide] |
| < 200 nM | Cc1cc(O)nc2ccc(NC(=O)c3cc(C4(N5CCOCC5)CC4)ccc3N3CCCC3CN(C)C)cc12 (stereo not shown) [Compound-114, 2-(2-((dimethylamino)methyl)pyrrolidin-1-yl)-N-(2-hydroxy-4-methylquinolin-6-yl)-5-(1-morpholinocyclopropyl) benzamide] |
| < 200 nM | Cc1cc(O)nc2ccc(NC(=O)c3cc(C(N)=O)ncc3N3CCCC3)cc12 [Compound-202, N4-(2-hydroxy-4-methylquinolin-6-yl)-5-(pyrrolidin-1-yl)pyridine-2,4-dicarboxamide] |
| 500 to 1000 nM | O=C1CCc2cc(NC(=O)c3cc(S(=O)(=O)N4CCOCC4)ccc3N3CCCC3)ccc2N1 [Compound-100, 5-morpholinosulfonyl-N-(2-oxo-3,4-dihydro-1H-quinolin-6-yl)-2-pyrrolidin-1-yl-benzamide] |
| < 200 nM | Cc1cc(O)nc2ccc(NC(=O)c3ccc(C(F)(F)F)nc3N3CCCC3)cc12 [Compound-134, N-(2-hydroxy-4-methyl-6-quinolyl)-2-pyrrolidin-1-yl-6-(trifluoromethyl)pyridine-3-carboxamide] |
| < 200 nM | Cc1cc(O)nc2ccc(NC(=O)c3cc(CN4CCOCC4)cnc3N3CCOCC3)cc12 [Compound-90, N-(2-hydroxy-4-methyl-6-quinolyl)-2-morpholino-5-(morpholinomethyl)pyridine-3-carboxamide] |
| < 200 nM | Cc1cc(O)nc2ccc(NC(=O)c3cc(S(N)(=O)=O)ccc3N3CCOCC3)cc12 [Compound-70, N-(2-hydroxy-4-methyl-6-quinolyl)-2-morpholino-5-sulfamoyl-benzamide] |
| < 200 nM | Cc1nnc(-c2ccc(N3CCOCC3)c(C(=O)Nc3ccc4nc(O)cc(C)c4c3)c2)o1 [Compound-180, N-(2-hydroxy-4-methylquinolin-6-yl)-5-(5-methyl-1,3,4-oxadiazol-2-yl)-2-morpholinobenzamide] |
| < 200 nM | Cc1cc(O)nc2ccc(NC(=O)c3cc(C(F)(F)F)ccc3N3CCCC3)cc12 [Compound-109, N-(2-hydroxy-4-methyl-6-quinolyl)-2-pyrrolidin-1-yl-5-(trifluoromethyl)benzamide] |
| < 200 nM | Cc1cc(O)nc2ccc(NC(=O)c3cccnc3N3CCCC3CN(C)C)cc12 (stereo not shown) [Compound-121, 2-[2-(dimethylaminomethyl)pyrrolidin-1-yl]-N-(2-hydroxy-4-methyl-6-quinolyl)pyridine-3-carboxamide] |
| < 200 nM | CC(=O)c1ccc(N2CCCC2)c(C(=O)Nc2ccc3nc(O)cc(C)c3c2)n1 [Compound-38, 6-acetyl-N-(2-hydroxy-4-methylquinolin-6-yl)-3(pyrrolidin-1-yl)picolinamide] |
| < 200 nM | Cc1cc(O)nc2ccc(NC(=O)c3cc4c(ccn4CC4NCCO4)cc3N3CCCC3)cc12 (stereo not shown) [Compound-84, N-(2-hydroxy-4-methyl-6-quinolyl)-1-(oxazolidin-2-ylmethyl)-5-pyrrolidin-1-yl-indole-6-carboxamide] |
